Series [1] concerns the target T1, Protease (Human immunodeficiency virus 1, UniProt Q9YQ12). Put plainly: Inhibition of HIV1 protease by continuous fluorometric assay.
In series [2] the target is T1, Protease. Put plainly: Inhibition of HIV1 protease dimerization by Zhang-Poorman kinetic assay.
Series [3] can be described thus: Solubility in water. It is filed as physicochemical.
The target of series [4] is Protease (Human immunodeficiency virus 1) (UniProt Q9YQ12). Put plainly: Binding affinity to HIV1 protease allosteric site at 10 to 50 uM after 1 hr by fluorescence-based cross competition kinetic assay in presence of acetyl-pepstatin.
Series [5] addresses T1, Protease. Put plainly: Inhibition of HIV1 protease by competitive inhibition assay.
Series [6] deals with Protease (Human immunodeficiency virus 1) (UniProt Q9YQ12). Description: Binding affinity to HIV1 protease active site at 10 to 50 uM after 1 hr by fluorescence-based cross competition kinetic assay in presence of acetyl-pepstatin.
The target is the same in series [7]. Put plainly: Inhibition of HIV1 protease at 130 uM by competitive Lineweaver-Burke plot.
The target is the same in series [8]. Description: Inhibition of HIV1 protease dimerization at 65.3 uM by Zhang-Poorman kinetic assay.

Results on 16 compounds are retold here after ChEMBL document CHEMBL1140986, “Sidechain-linked inhibitors of HIV-1 protease dimerization” (Bioorg Med Chem, 2009).

Molecules are shown by their SMILES. In brackets after ≈: the same amount, converted by molar mass. Activity calls are given as the source filed them. The rule behind the calls is not given here. Non-standard residues stand in square brackets, D forms with d. Residues, ends and D or L forms follow the SMILES beside them. *: point of attachment. C16 diacid = O=C(O)CCCCCCCCCCCCCCC(=O)*; aThr = C[C@H](O)[C@H](N)C(=O)O

At Protease [1], `CC(C)C[C@H](NC(=O)[C@H](CSCCOCCOCCSC[C@H](NC(=O)CCCCC1CCCCC1)C(=O)N[C@@H](Cc1ccccc1)C(=O)O)NC(=O)CCCCC1CCCCC1)C(=O)N[C@@H](Cc1ccccc1)C(N)=O` showed an IC50 of 675 µM. In addition, at Protease [2], the affinity, expressed as Ki, was 88 µM.

For the compound `CC(C)C[C@H](NC(=O)[C@@H](NC(=O)CCCCCCCCCCCCCCC(=O)N[C@@H](CC(N)=O)C(=O)N[C@@H](Cc1ccccc1)C(=O)O)[C@H](C)O)C(=O)N[C@@H](Cc1ccccc1)C(N)=O` ({Phe-Asn-C16 diacid}-[aThr]-Leu-Phe-NH2), the Ki at Protease [2] is 3 µM.

`CCCCCCC(=O)N[C@@H](CSCCOCCOCCSC[C@H](NC(=O)CCCCCC)C(=O)N[C@@H](CC(C)C)C(=O)N[C@@H](Cc1ccccc1)C(N)=O)C(=O)N[C@@H](Cc1ccccc1)C(=O)O`: it took 4 µM to reach half-maximal inhibition against Protease [1] (IC50). On Protease [2], this compound returned a Ki of 1.3 µM. Besides, the solubility in series [3] turned out to be 80 µM (≈ 79 µg/mL).

On Protease [1], `CC(C)C[C@H](NC(=O)[C@H](CSCCOCCOCCSC[C@H](NC(=O)Cc1ccccc1)C(=O)N[C@@H](Cc1ccccc1)C(=O)O)NC(=O)Cc1ccccc1)C(=O)N[C@@H](Cc1ccccc1)C(N)=O` gave an IC50 of 2.5 µM.

Regarding `CC(C)C[C@H](NC(=O)[C@H](CSCCOCCOCCSC[C@H](NC(=O)C1CCCCC1)C(=O)N[C@@H](Cc1ccccc1)C(=O)O)NC(=O)C1CCCCC1)C(=O)N[C@@H](Cc1ccccc1)C(N)=O`, inhibition on Protease [1] was half-maximal at 19.5 µM (IC50).

The compound `CC(C)C[C@H](NC(=O)[C@@H](NC(=O)CCCCCCCCCCCCCCC(=O)N[C@@H](CC(N)=O)C(=O)N[C@@H](Cc1ccccc1)C(=O)O)[C@@H](C)O)C(=O)N[C@@H](Cc1ccccc1)C(N)=O` ({Phe-Asn-C16 diacid}-Thr-Leu-Phe-NH2) gave a solubility in series [3] of 1 µM (≈ 0.908 µg/mL).

As to `CCCC(=O)N[C@@H](CSCCOCCOCCSC[C@H](NC(=O)CCC)C(=O)N[C@@H](CC(C)C)C(=O)N[C@@H](Cc1ccccc1)C(N)=O)C(=O)N[C@@H](Cc1ccccc1)C(=O)O`, the IC50 against Protease [1] is 87 µM. For the same compound, the affinity at Protease [2] corresponds to a Ki of 8.3 µM.

Consider `CC[C@@H](C)[C@H](NC(=O)[C@H](CSCCOCCOCCSC[C@H](NC(=O)CCCCC1CCCCC1)C(=O)N[C@@H](Cc1ccccc1)C(=O)O)NC(=O)CCCCC1CCCCC1)C(=O)N[C@@H](Cc1ccccc1)C(N)=O`, for which the IC50 against Protease [1] was determined as 64 µM. In addition, the affinity at Protease [2] corresponds to a Ki of 40.1 µM.

`CCCCCCC(=O)N[C@@H](CSCCOCCOCCSC[C@H](NC(=O)CCCCCC)C(=O)N[C@H](C(=O)N[C@@H](Cc1ccccc1)C(N)=O)[C@H](C)CC)C(=O)N[C@@H](Cc1ccccc1)C(=O)O` registered an IC50 on Protease [1] of 1.2 µM. This compound registered a Ki on Protease [2] of 510 µM.

In the case of `CCCCC(=O)N[C@@H](CSCCOCCOCCSC[C@H](NC(=O)CCCC)C(=O)N[C@@H](CC(C)C)C(=O)N[C@@H](Cc1ccccc1)C(N)=O)C(=O)N[C@@H](Cc1ccccc1)C(=O)O`, at Protease [1], the IC50 stood at 50 µM. The compound also registered an inhibition constant (Ki) at Protease [2] of 6.8 µM.

On Protease [1], `CC(C)C[C@H](NC(=O)[C@H](CSCCOCCOCCSC[C@H](NC(=O)CCc1ccccc1)C(=O)N[C@@H](Cc1ccccc1)C(=O)O)NC(=O)CCc1ccccc1)C(=O)N[C@@H](Cc1ccccc1)C(N)=O` gave an IC50 of 6.5 µM.

`CCCCCC(=O)N[C@@H](CSCCOCCOCCSC[C@H](NC(=O)CCCCC)C(=O)N[C@@H](CC(C)C)C(=O)N[C@@H](Cc1ccccc1)C(N)=O)C(=O)N[C@@H](Cc1ccccc1)C(=O)O`: inhibition against Protease [1] was half-maximal at 14.9 µM (IC50). At Protease [2], this compound yielded an inhibition constant (Ki) of 2.3 µM. In series [3], this compound returned a solubility of 90 µM (≈ 86.3 µg/mL).

`CC(C)C[C@H](NC(=O)[C@H](CSCCOCCOCCSC[C@H](NC(=O)CC1CCCCC1)C(=O)N[C@@H](Cc1ccccc1)C(=O)O)NC(=O)CC1CCCCC1)C(=O)N[C@@H](Cc1ccccc1)C(N)=O`: the IC50 at Protease [1] is 9.5 µM.

As for `CC(C)C[C@H](NC(=O)[C@H](CSCCOCCOCCSC[C@H](NC(=O)COc1ccccc1)C(=O)N[C@@H](Cc1ccccc1)C(=O)O)NC(=O)COc1ccccc1)C(=O)N[C@@H](Cc1ccccc1)C(N)=O`, it took 2.9 µM to reach half-maximal inhibition against Protease [1] (IC50). In addition, the inhibition constant (Ki) on Protease [2] was determined as 1.25 µM.

On to `CC(C)C[C@H](NC(=O)[C@H](CSCCOCCOCCSC[C@H](NC(=O)CCC1CCCCC1)C(=O)N[C@@H](Cc1ccccc1)C(=O)O)NC(=O)CCC1CCCCC1)C(=O)N[C@@H](Cc1ccccc1)C(N)=O`, for which, on Protease [1], the IC50 came out at 2.5 µM.

With `CCC(=O)N[C@@H](CSCCOCCOCCSC[C@H](NC(=O)CC)C(=O)N[C@@H](CC(C)C)C(=O)N[C@@H](Cc1ccccc1)C(N)=O)C(=O)N[C@@H](Cc1ccccc1)C(=O)O`, the result in series [4] and in series [7] was Active. In addition, on Protease [1], it took 130 µM to reach half-maximal inhibition (IC50). Further, the Ki on Protease [5] came to 16.9 µM. Moreover, the outcome in series [6] and in series [8] was inactive.

The term IC50 denotes the concentration at which inhibition is half-maximal. Read a high IC50 as weaker potency in that assay. Usually Ki stands for the dissociation constant of the complex between target and ligand, obtained from inhibition or displacement. Low values mean tighter binding, high ones weaker binding. By solubility is commonly meant the dissolved amount per volume that the medium holds.
